Measured values taken from patent US6069166A, “Fused heterocyclic benzenecarboxamide derivatives and PGD2 antagonists comprising them” (Shionogi & Co., Ltd., priority 1996, dated 2000).

Legend:
[1] = target: T1, PGD2 Receptor (Homo sapiens, UniProt Q13258); test: Antagonistic activity against PGD2 receptor using human platelet (PGD2-induced cAMP increase); assay type: cell-based; conditions: human platelets 5×10^8/ml, 0.1 μM PGD2, IBMX 0.5 mM, cAMP by radioimmunoassay; read-out: IC50 (inhibition of cAMP increased by PGD2)
T1 construct: A suspension adjusted to contain platelet at a final concentration of; endogenous in cells; host or cells: washed human platelets from peripheral blood of a healthy volunteer
T1 sequence (Q13258 1-359): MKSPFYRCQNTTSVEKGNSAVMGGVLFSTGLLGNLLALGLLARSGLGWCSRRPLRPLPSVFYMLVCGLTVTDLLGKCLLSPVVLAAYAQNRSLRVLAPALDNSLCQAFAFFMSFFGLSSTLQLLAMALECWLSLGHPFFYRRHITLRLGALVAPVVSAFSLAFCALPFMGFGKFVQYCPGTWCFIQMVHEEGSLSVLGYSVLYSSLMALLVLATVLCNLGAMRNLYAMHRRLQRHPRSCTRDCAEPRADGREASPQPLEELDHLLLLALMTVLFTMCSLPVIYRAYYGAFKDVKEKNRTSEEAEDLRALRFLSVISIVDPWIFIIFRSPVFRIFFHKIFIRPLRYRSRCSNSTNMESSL
Method: Experiment 2 Evaluation of Antagonistic Activity Against PGD2 Receptor Using Human Platelet Peripheral blood was obtained from a healthy volunteer using a syringe in which 1/9 volume of citric acid/dextrose solution has been previously added. The syringe was subjected to centrifugation at 180 g for 10 min to obtain the supernatant (PRP:platelet rich plasma). The resultant PRP was washed 3 times with a washing buffer and the number of platelet was counted with a micro cell counter. A suspension adjusted to contain platelet at a final concentration of 5×10^8 /ml was warmed at 37° C., and then subjected to the pre-treatment with 3-isobutyl-1-methylxanthine (0.5 mM) for 5 min. To the suspension was added a test compound diluted at various concentration. Ten-minute later, the reaction was induced by the addition of 0.1 μM PGD2 and, 2-minute later, stopped by the addition of hydrochloric acid. The platelet was destroyed with an ultrasonic homogenizer. After centrifugation, the cAMP in the supernatant was determined by radioimmunoassay. PGD2 receptor antagonism of a drug was evaluated as follows. The inhibition rate regarding cAMP increased by the addition of PGD2 was determined at individual concentration, and then the concentration of the drug required for 50% inhibition (IC50) was calculated.

[2] = target: T1, PGD2 Receptor; test: Binding to PGD2 receptor (human platelet membrane fraction, [3H]PGD2); conditions: human platelet membrane fraction 0.1 mg, 5 nM [3H]PGD2, 4° C., 90 min, pH 7.4; read-out: IC50 (inhibition of [3H]PGD2 binding)
Method: Experiment 1 Binding to PGD2 Receptor
(1) Preparation of Human Platelet Membrane Fraction
Blood sample was obtained using a plastic syringe containing 3.8% sodium citrate from the vein of healthy volunteers (adult male and female), put into a plastic test tube and mixed gently by rotation. The sample was then centrifuged at 1800 rpm, 10 min at room temperature, and the supernatant containing PRP (platelet-rich plasma) was collected. The PRP was re-centrifuged at […], 22 min at room temperature to obtain platelets. The platelets were homogenized using a homogenizer (Ultra-Turrax) followed by centrifugation 3 times at 20,000 rpm, 10 min at 4° C. to obtain a platelet membrane fraction. After protein determination, the membrane fraction was adjusted to 2 mg/ml and preserved in a refrigerator at -80° C. until use.
(2) Binding to PGD2 Receptor
To a binding-reaction solution (50 mM Tris/HCl, pH 7.4, 5 mM MgCl2) (0.2 ml) were added the human platelet membrane fraction (0.1 mg) and 5 nM [^3 H]PGD2 (115Ci/mmol), and reacted at 4° C. for 90 min. After the reaction completed, the reaction mixture was filtered through a glass fiber filter paper, washed several times with cooled saline, and measured the radioactivity retained on the filter paper. The specific binding was calculated by subtracting the non-specific binding (the binding in the presence of 10 μM PGD2) from the total binding. The inhibitory activity of each compound was expressed as the concentration required for 50% inhibition (IC50), which was determined by depicting a substitution curve by plotting the binding ratio (%) in the presence of each compound, where the binding ratio in the absence of a test compound is 100%.

[3] = system: nasal blockage (intranasal pressure); test: Nasal blockage model in sensitized guinea pigs (intranasal pressure after OVA challenge); assay type: in vivo, Hartley male guinea pig; conditions: oral, 60 min before antigen exposure; AUC of intranasal pressure 0-30 min vs vehicle; dose not given
Method: Experiment 3 Experiment Using Nasal Blockage Model
The method used for measuring the intranasal pressure for evaluating the anti-nasal blockage using guinea pigs is described below.
A 1% ovalbumin (OVA) solution was treated with an ultrasonic nebulizer to obtain an aerosol. Hartley male guinea pig was sensitized by inhaling twice the aerosol for 10 min at one-week interval. Seven-day after the sensitization, the guinea pig was exposed to an antigen to initiate the reaction. Briefly, the trachea was incised under the anesthesia with pentobarbital (30 mg/kg. i.p.) and cannulas were inserted into the trachea at the pulmonary and nasal cavity sides. The canal inserted at the pulmonary side was connected with an artificial respirator that provides 4 ml air 60 times/min. After arresting the spontaneous respiration of the guinea pig with Gallamin (2 mg/kg, i.v.), air was supplied to the snout side with an artificial respirator at the frequency of 70 times/min, and the flow rate of 4 ml air/time, and the atmospheric pressure required for the aeration was measured by the use of a transducer fitted at the branch. The measurement was used as a parameter of the nasal cavity resistance. The exposure of an antigen was carried out by generating aerosol of 3% OVA solution for 3 min between the respirator and the nasal cavity cannula. […]

IC50 [1]	IC50 [2]	SMILES	Inhibitory Rate (%) [3]
0.0044 µM	0.00041 µM	COc1csc2c(C(=O)N[C@@H]3[C@@H](C/C=C\CCCC(=O)O)C[C@H]4C[C@@H]3C4(C)C)cccc12 [IA-a-9]	
0.042 µM	0.026 µM	CC1(C)[C@H]2C[C@H](C/C=C\CCCC(=O)O)[C@@H](NC(=O)c3cccc4ccsc34)[C@@H]1C2 [IA-a-1]	80%
0.15 µM	0.011 µM	Cc1csc2c(C(=O)N[C@@H]3[C@@H](C/C=C\CCCC(=O)O)C[C@H]4C[C@@H]3C4(C)C)cccc12 [IA-a-4]	
0.011 µM	0.0012 µM	CC1(C)[C@H]2C[C@H](C/C=C\CCCC(=O)O)[C@@H](NC(=O)c3cccc4c(Br)csc34)[C@@H]1C2 [IA-a-7]	
